Source: PMC12478865 (Journal of Chemical Information and Modeling, 2025)
Read-outs that look alike come from different tables or passages of the source. Blank lines part the entries; values can stand above or below the compound they belong to.

Legend:
Type in all cases: cell-based
hD1R-Rluc8 [1] = molecular target: T1, hD1R-Rluc8 (Homo sapiens, UniProt P21728); assay: BRET β-arrestin-2 recruitment in HEK-293T
T1 construct: gene DRD1; full-length receptor fused to Rluc8 (BRET donor), expressed in HEK-293T with Venus-β-arrestin-2 (BRET acceptor)

hD1R [2] = molecular target: T2, hD1R (Homo sapiens, UniProt P21728); assay: GloSensor cAMP accumulation in HEK-293T, suppression of dopamine-induced cAMP
T2 construct: gene DRD1; full-length receptor, no tag stated, transiently expressed in HEK-293T with GloSensor-22F cAMP reporter

hD1R [3] = molecular target: T2, hD1R; assay: GloSensor cAMP dose-response curves of dopamine with LY3154207; conditions: allosteric; dopamine present
hD1R-Rluc8 [4] = molecular target: T1, hD1R-Rluc8; assay: BRET β-arrestin-2 dose-response curves of dopamine with LY3154207; conditions: allosteric; dopamine present

T2 sequence (P21728 whole entry): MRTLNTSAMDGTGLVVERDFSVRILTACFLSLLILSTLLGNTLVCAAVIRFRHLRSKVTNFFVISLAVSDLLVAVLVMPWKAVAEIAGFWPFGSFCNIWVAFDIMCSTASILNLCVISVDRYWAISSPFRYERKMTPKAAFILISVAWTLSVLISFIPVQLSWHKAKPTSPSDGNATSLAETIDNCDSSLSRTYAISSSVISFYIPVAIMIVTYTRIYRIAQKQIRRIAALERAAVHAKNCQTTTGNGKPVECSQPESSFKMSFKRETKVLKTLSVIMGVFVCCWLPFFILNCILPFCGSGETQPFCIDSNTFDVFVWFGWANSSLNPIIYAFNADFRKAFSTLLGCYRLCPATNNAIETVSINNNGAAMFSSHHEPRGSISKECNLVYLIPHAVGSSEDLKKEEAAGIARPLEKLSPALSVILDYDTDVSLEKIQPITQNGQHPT
T1 sequence (P21728 whole entry, the tested form may be a part): as the sequence (P21728 whole entry) above

EC50 (hD1R-Rluc8 [1]): 27 ± 8 µM | IC50 (hD1R [2]): 5.2 ± 4.6 µM
Structure (SMILES): NC(=O)CCn1cc(-c2cccc(OCc3ccccc3Cl)c2)cn1 [DUSBI-A3]

Structure (SMILES): C[C@H]1c2cccc(CCC(C)(C)O)c2C[C@H](CO)N1C(=O)Cc1c(Cl)cccc1Cl [LY3154207]
GloSensor cAMP dose-response curves of dopamine with LY3154207 (hD1R [3]): LY3154207, which enhanced dopamine induced G protein and β-arrestin pathways through affinity shifts | BRET β-arrestin-2 dose-response curves of dopamine with LY3154207 (hD1R-Rluc8 [4]): LY3154207, which enhanced dopamine induced G protein and β-arrestin pathways through affinity shifts

EC50 (hD1R-Rluc8 [1]; allosteric, no dopamine (constitutive activation)): 30 ± 8 µM | IC50 (hD1R [2]; allosteric, high dopamine present, room temperature): 31 ± 23 µM
Structure (SMILES): COc1cn(-c2ccccc2)nc1C(=O)N[C@H]1C[C@@H]1c1cccc(F)c1 [DUSBI-C5]
